# Measured values taken from US4056674A, “Derivatives of 3-deazaguanine” (priority 1975, dated 1977).
# Key:
# [1] = test system: herpes simplex virus, type 1; test: In vitro antiviral, inhibition of virus-induced CPE, HSV/1; format: cell-based; settings: KB or RK-13 cells, VR >0.5 significant, <0.5 slight antiviral activity
# leukemia L1210 = test: Activity against leukemia L1210 in BDF1 female mice; format: in vivo; settings: 40 mg/kg i.p., qd [1-9]
# Protocol: In this example compound 30 was tested for antitumor activity in mice. […] A 10^-5 M concentration of compound 30 caused 50% inhibition of the incorporation of ^3 H-thymidine and ^3 H-uridine into the acidinsoluble fraction of L1210 cells in tissue culture. […] Ara C (cytosine arabinoside) was included as a standard.
# All animals were inoculated (i.p) with 10^5 leukemic cells. Treatment
# was started 24 hours after transplant. Figures in parenthesis denote 21
# [2] = test system: viruses causing respiratory diseases such as influenza in man; settings: background statement; cited from earlier work
# Escherichia Coli = test: In vivo antibacterial activity, survival of mice after intraperitoneal challenge with Escherichia coli 138; design: species or system white mice (ICR, COX 17 to 20 g); settings: 7 days
# Protocol: In this example compounds 7 and 23 were tested along with, as a comparison, the known antibiotic Gentamycin, to determine their in vivo antibacterial activity. Experimental infections were produced in groups of 20 white mice (ICR, COX 17 to 20 g).
# *Ec 138: Tetracycline and Streptomycin
# **The LD50 is the challenge that killed 50% of the infected mice; th
# LD50 values for the pathogen were calculated by the method of Probit
# adenovirus, type 3 = test: In vitro antiviral, inhibition of virus-induced cytopathogenic effect (CPE), AV/3; format: cell-based; settings: KB or RK-13 cells, VR >0.5 significant, <0.5 slight antiviral activity
# [3] = test system: Parainfluenza virus, type 3; test: In vitro antiviral, inhibition of virus-induced CPE, PIV/3; format: cell-based
# rhinovirus, type 13 = test: In vitro antiviral, inhibition of virus-induced CPE, RV/13; format: cell-based; settings: KB or RK-13 cells, VR >0.5 significant, <0.5 slight antiviral activity
# [4] = test system: herpes simplex virus, type 2; test: In vitro antiviral, inhibition of virus-induced CPE, HSV/2; format: cell-based; settings: KB or RK-13 cells, VR >0.5 significant, <0.5 slight antiviral activity
# vaccinia virus = format: cell-based; settings: VV; KB or RK-13 cells; VR >0.5 significant, <0.5 slight antiviral activity
# [5] = test system: parainfluenza virus, type 1; test: In vitro antiviral, inhibition of virus-induced CPE, PIV/1; format: cell-based
compound,measurement,setting,value
"C[C@H]1O[C@@H](n2cnc3c(=O)[nH]c(N)cc32)[C@H](O)[C@@H]1O [Compound 16, 6-Amino-1-(5-deoxy-β-D-ribofuranosyl)imidazo[4,5-c]pyridine-4(5H)-one]",Virus rating (VR),[1],0.9
"Nc1ccn([C@@H]2O[C@H](CO)[C@@H](O)[C@@H]2O)c(=O)n1 [Ara C, 1-β-D-arabinofuranosylcytosine, reference compound]",21 day survivors,leukemia L1210,0/6
same,Average Mean Survival,leukemia L1210,17.33 days
same,T/C,leukemia L1210,2.11
same,ΔWt.,leukemia L1210,-0.2 g
same,activity against respiratory disease viruses,[2],only active against a limited spectrum of viruses which does not include those causing respiratory diseases
"Nc1ncnc2c1ncn2[C@@H]1O[C@H](CO)[C@@H](O)[C@@H]1O [ara-A, 9-β-D-arabino furanosyladenine]",activity against respiratory disease viruses,[2],only active against a limited spectrum of viruses which does not include those causing respiratory diseases
"O=c1[nH]c(=O)n([C@H]2C[C@H](O)[C@@H](CO)O2)cc1I [IDU, 5-iodo-2' -deoxyuridine]",activity against respiratory disease viruses,[2],only active against a limited spectrum of viruses which does not include those causing respiratory diseases
"Nc1cc2ncn([C@@H]3O[C@H](COP(=O)(O)O)[C@@H](O)[C@H]3O)c2c(=O)[nH]1 [Compound 23, 6-Amino-3-β-D-ribofuranosylimidazo[4,5-c]pyridin-4(5H)-one-5'-phosphate]",% survival,"Escherichia Coli; challenge 1000 LD50's, 100 mg/kg × 1, oral",100%
"N#CCc1[nH]cnc1C(N)=O [Compound 29, 4(5)-Cyanomethylimidazole-5(4)-carboxamide]",Virus rating (VR),"adenovirus, type 3",0.8
same,Virus rating (VR),[1],0.9
same,Virus rating (VR),[3],0.5
same,Virus rating (VR),"rhinovirus, type 13",0.6
"N#CCc1c(C(N)=O)ncn1[C@@H]1O[C@H](COP(=O)(O)O)[C@@H](O)[C@H]1O [Compound 20, 5-Cyanomethyl-1-β-D-ribofuranosylimidazole-4-carboxamide 5'-phosphate]",Virus rating (VR),[1],0.8
same,Virus rating (VR),[4],0.5
same,Virus rating (VR),vaccinia virus,0.3
"NC(=O)c1ncn([C@@H]2O[C@H](CO)[C@@H](O)[C@H]2O)n1 [1-β-D-ribofuranosyl-1,2,4-triazole-3-carboxamide]",activity against respiratory disease viruses,[2],active against these respiratory disease viruses
"N#CCc1c(C(N)=O)ncn1[C@@H]1O[C@H](CO)[C@@H](O)[C@H]1O [Compound 3, 5-Cyanomethyl-1-β-D-ribofuranosylimidazole-4-carboxamide]",Virus rating (VR),[1],0.6
same,Virus rating (VR),[4],1.3
"Nc1cc2c(ncn2[C@@H]2O[C@H](COP(=O)(O)O)[C@@H](O)[C@H]2O)c(=O)[nH]1 [Compound 22, 6-Amino-1-β-D-ribofuranosylimidazo[4,5-c]pyridin-4(5H)-one 5'-phosphate]",Virus rating (VR),[1],0.9
same,Virus rating (VR),[4],1.0
same,Virus rating (VR),vaccinia virus,0.7
same,Virus rating (VR),[3],0.8
same,Virus rating (VR),[5],0.3
same,Virus rating (VR),"rhinovirus, type 13",0.9
"Nc1cc2ncn(C3CCCCO3)c2c(=O)[nH]1 (stereo not shown) [Compound 13, 6-Amino-3-(tetrahydropyran-2-yl)imidazo[4,5-c]pyridin-4(5H)-one]",Virus rating (VR),[1],0.8
Gentamycin [reference compound],% survival,"Escherichia Coli; challenge 1 LD50, 1 mg/kg × 2, SC",100%
same,% survival,"Escherichia Coli; challenge 10 LD50's, 1 mg/kg × 2, SC",100%
same,% survival,"Escherichia Coli; challenge 100 LD50's, 1 mg/kg × 2, SC",90%
same,% survival,"Escherichia Coli; challenge 1000 LD50's, 1 mg/kg × 2, SC",80%
same,% survival,"Escherichia Coli; challenge 10,000 LD50's, 1 mg/kg × 2, SC",60%
